Literature values in patent US20060222709A1 (AGI Therapeutics Research Ltd., priority 2005, published 2006).

Assays:
[1] = tested on: women patients with IBS-C; conditions: 6 mg twice daily
[2] = tested on: patients with chronic constipation; conditions: two trials

CCCCCNC(=N)N/N=C/c1c[nH]c2ccc(OC)cc12.O=C(O)/C=C\C(=O)O [tegaserod, 3-(5-methoxy-1H-indol-3-ylmethylene)-N-pentylcarbazimidamide hydrogen maleate]
global and individual symptoms [1]: effectively improves global and individual symptoms

CN(C)C(=N)N=C(N)N [metformin, dimethylbiguanide]
acute, reversible adverse effects, mainly of gastrointestinal tract origin, patients affected (human, in vivo): up to 20%
prevalence of diarrhea (treated diabetes patients (Bytzer 2001)): 20%

OC[C@H]1O[C@@H](O[C@@H]2[C@@H](CO)OC(O)(CO)[C@H]2O)[C@H](O)[C@@H](O)[C@H]1O (mixture of isomers) [lactulose]
stool frequency and consistency versus placebo [2]: more effective than placebo
